Assay [1] has as its system human blood platelet aggregation. Kind of assay: Inhibitory effect on human blood platelet aggregation (ADP-induced, platelet-rich plasma). It counts as cell-based. The conditions noted are these: human PRP (5×10^5 platelets/mm^3), compound added 1 minute prior to ADP (4 μm), read-out: IC50, inhibition of human blood platelet aggregation. The protocol:
ii) Inhibitory effect on human blood platelet aggregation
Platelet-rich plasma (PRP) was prepared from human blood (5×10^5 platelets/mm^3) and a test compound was added to PRP 1 minute prior to the addition of ADP (4 μm). The aggregation was monitored using a platelet aggregometer (NBS HEMA TRACER 601, Niko Bioscience, Japan).

In assay [2] the target is T1, PGI2 receptor in the human blood platelet membrane fraction (Homo sapiens, UniProt P43119).
T1 construct: human blood platelet membrane fraction (0.3 mg protein) was added; from tissue; host or cells: human blood platelets (membrane fraction)
Kind of assay: Inhibitory activity on binding of [^3 H]-iloprost to PGI2 receptor in the human blood platelet membrane fraction. The conditions noted are these: 10 nM [^3 H]-iloprost, human blood platelet membrane fraction (0.3 mg protein), pH 7.4, 24° C., 30 min; read-out: IC50, inhibition of [^3 H]-iloprost binding to PGI2 receptor. The protocol:
i) Inhibitory activity on binding of [^3 H]-iloprost to PGI2 receptor in the human blood platelet membrane fraction
50 mM Tris-HCl buffer (pH 7.4) containing 15 mM MgCl2, 5 mM EDTA and 10 nM [^3 H]-iloprost were used as reaction medium. To 0.2 ml of the reaction medium, human blood platelet membrane fraction (0.3 mg protein) was added with or without a test compound. The mixture was incubated at 24° C. for 30 min. After incubation, 4 ml of ice-cold 10 mM Tris-HCl buffer (pH 7.4) was added to the reaction mixture, the mixture was filtered through Whatman GF/B glass fiber filter and washed 4 times with 4 ml of ice-cold 10 mM Tri-HCl buffer (pH 7.4) to separate bound and free [^3 H]-iloprost. After washing, the filter was dried and radioactivity was counted. Non-specific binding was obtained by performing parallel binding experiments in the presence of 10 μM non-labelled iloprost. Specific binding was calculated by subtracting the non-specific binding from the total binding.
The inhibitory effect of a test compound was calculated from the following equation.
The percentage of inhibition (%)=100-(B1 /B0 ×100)
B1 :specific [^3 H]-iloprost binding in the presence of a test compound
B0 :specific [^3 H]-iloprost binding in the absence of a test compound

T1 sequence (P43119 whole entry): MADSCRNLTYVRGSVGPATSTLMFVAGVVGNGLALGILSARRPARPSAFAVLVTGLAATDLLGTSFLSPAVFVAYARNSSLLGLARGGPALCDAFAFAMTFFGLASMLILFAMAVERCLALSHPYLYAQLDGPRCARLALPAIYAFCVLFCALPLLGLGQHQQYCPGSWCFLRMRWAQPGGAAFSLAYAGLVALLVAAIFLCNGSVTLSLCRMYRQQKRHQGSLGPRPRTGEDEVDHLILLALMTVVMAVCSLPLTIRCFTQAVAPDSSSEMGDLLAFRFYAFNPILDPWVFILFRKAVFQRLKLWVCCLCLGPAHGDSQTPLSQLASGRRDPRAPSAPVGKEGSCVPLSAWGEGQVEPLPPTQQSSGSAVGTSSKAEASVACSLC

For `O=C(O)COc1cccc(CCCn2cc(C(c3ccccc3)c3ccccc3)nn2)c1` [17(c), 3-[3-(4-Diphenylmethyl-1,2,3-triazol-1-yl)propyl]phenoxyacetic acid], the figures for the IC50 in assay [1] and in assay [2] were 0.47 µM and 0.27 µM, respectively.

With `O=C(O)COc1cccc(CCCc2cc(C(c3ccccc3)c3ccccc3)on2)c1` [Example 19, 3-[3-(5-diphenylmethylisoxazol-3-yl)propyl]phenoxyacetic acid], the IC50 in assay [1] came to 0.16 µM; in assay [2], 0.12 µM.

Turning to `O=C(O)COc1cccc(CCCON=C(c2ccccc2)c2cccnc2)c1` [17(x), 3-[3-[1-Phenyl-1-(3-pyridyl)methylideneaminooxy]propyl]phenoxyacetic acid], the IC50 in assay [2] was 5 µM.

`COC(=O)COc1cccc(CCCC(=O)OC(c2ccccc2)c2ccccc2)c1` [Example 15, Methyl 3-(3-diphenylmethyloxycarbonylpropyl)phenoxyacetate]: the IC50 in assay [2] is 4 µM.

On to `O=C(O)COc1cccc(CCCn2cc(C(c3ccccc3)c3ccccc3)cn2)c1` [Example 17, 3-[3-(4-diphenylmethylpyrazol-1-yl)propyl]phenoxyacetic acid], for which the IC50 in assay [1] was 0.42 µM; in assay [2], 0.15 µM.

`O=C(O)COc1cccc(CCCC(=O)N(Cc2ccccc2)Cc2ccccc2)c1` [8(l), 3-[3-(N,N-Dibenzylaminocarbonyl)propyl]phenoxyacetic acid]: in assay [2], the IC50 came to 1.5 µM.

Turning to `CCCC(CCCc1cccc(OCC(=O)O)c1)=NOC(c1ccccc1)c1ccccc1` [Example 4, 3-(4-Diphenylmethyloxyiminoheptyl)phenoxyacetic acid], the results for the IC50 in assay [1] and in assay [2] were 3.7 µM and 1.6 µM, respectively.

For `O=C(O)COc1cccc(CCCc2noc(C(c3ccccc3)c3ccccc3)n2)c1` [Example 23, 3-[3-(5-diphenylmethyl-1,2,4-oxadiazol-3-yl)propyl]phenoxyacetic acid], the results for the IC50 in assay [1] and in assay [2] were 0.37 µM and 1.5 µM, respectively.

For `O=C(O)COc1cccc(CCCC(=O)NN(c2ccccc2)c2ccccc2)c1` [8(o), 3-[3-[(N,N-Diphenylamino)aminocarbonyl]propyl]phenoxyacetic acid], the IC50 was 0.97 µM in assay [1] and 0.46 µM in assay [2].

Regarding `Cc1c(/C=C/Cn2cc(C(c3ccccc3)c3ccccc3)cn2)cccc1OCC(=O)O` [17(s), 2-Methyl-3-[3-(4-diphenylmethylpyrazol-1-yl)-1-propenyl]phenoxyaceticacid], the results for the IC50 in assay [1] and in assay [2] were 3.2 µM and 0.78 µM, respectively.

In the case of `O=C(O)COc1ccccc1CCCCn1cc(C(c2ccccc2)c2cccnc2)cn1` (stereo not drawn) [17(n)], the IC50 in assay [2] was 2 µM.

Consider `O=C(O)COc1cccc(CCCCOC(c2ccccc2)c2ccccc2)c1` [Example 12, 3-(4-Diphenylmethyloxybutyl)phenoxyacetic acid], for which the IC50 came to 5 µM in assay [1] and 1.3 µM in assay [2].

Turning to `O=C(O)COc1cccc(CCCn2ncc(C(c3ccccc3)c3ccccc3)n2)c1` [17(b), 3-[3-(4-Diphenylmethyl-1,2,3-triazol-2-yl)propyl]phenoxyacetic acid], the IC50 in assay [1] was found to be 0.24 µM; in assay [2], 0.36 µM.

Consider `O=C(O)COc1cccc(CCCC(=O)NC(c2ccccc2)c2ccccc2)c1` [8(n), 3-(3-Diphenylmethylaminocarbonylpropyl)phenoxyacetic acid], for which the 50% inhibitory concentration (IC50) in assay [1] was determined as 3.1 µM; in assay [2], 2 µM.

Take `O=C(O)COc1cccc(CCCC=NOC(c2ccccc2)c2ccccc2)c1` [Example 2, 3-(4-Diphenylmethyloxyiminobutyl)phenoxyacetic acid]: the IC50 in assay [2] turned out to be 4.8 µM.

For `CCCC(CCCc1cccc(OCC(=O)O)c1)NOC(c1ccccc1)c1ccccc1` (stereo not drawn) [Example 6, 3-(4-Diphenylmethyloxyaminoheptyl)phenoxyacetic acid], in assay [2], the 50% inhibitory concentration (IC50) turned out to be 3 µM.

With `O=C(O)COc1cccc(/C=C/Cn2cc(C(c3ccccc3)c3ccccc3)cn2)c1` [17(i), 3-[3-(4-Diphenylmethylpyrazol-1-yl)-1-propenyl]phenoxyacetic acid], the IC50 in assay [2] amounted to 0.22 µM.

In the case of `O=C(O)COc1cccc(CCCc2nc(C(c3ccccc3)c3ccccc3)no2)c1` [Example 21, 3-[3-(3-diphenylmethyl-1,2,4-oxadiazol-5-yl)propyl]phenoxyacetic acid], the IC50 in assay [2] was found to be 4.4 µM.

With `O=C(O)COc1cccc(OCCn2cc(C(c3ccccc3)c3ccccc3)cn2)c1` [17(cc), 3-[2-(4-Diphenylmethylpyrazol-1-yl)ethyloxy]phenoxyacetic acid], the IC50 in assay [1] came out at 0.41 µM; in assay [2], 0.26 µM.

As usually defined, the IC50 is the concentration that inhibits the measured activity by half.

The values above are taken from patent US5378716A, “Pyrazol-1-yl phenoxyacetic acid compounds which have useful pharmaceutical utility” (Ono Pharmaceutical Co., Ltd., priority 1992, dated 1995).
